Test results as given in US9023789B2, “Amylin analogs and pharmaceutical compositions thereof” (Novo Nordisk A/S, priority 2012, dated 2015).
Numbered stars: 1 amine (or outer) side, 2 acyl side, 3 side chain; on linkers, the order of the positions; unused ones are H or OH. Bridge positions count the residues as written; N and C are the ends. Side chains are listed from the residue outwards. Peptide text beside a SMILES is read from it. * marks the point of attachment. C20 diacid = O=C(O)CCCCCCCCCCCCCCCCCCC(=O)*; γGlu = O=C(O)[C@H](CCC(=O)[*:2])N[*:1]

What was measured:
[1] = ASSAY (III) ThT fibrillation assay for physical stability; format: physicochemical
Summary of the method: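 Formulations with 1 μM ThT, pH adjusted as required, incubated at 37 °C with 960 rpm orbital shaking; fluorescence (ex 444/em 485 nm) read every 20 min. Fibrillation reported as mean ThT fluorescence ± SD of 4–8 replicates at time points; polypeptide concentration measured by reverse-phase HPLC before and after, post-centrifugation.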

[2] = target: T1, human calcitonin (a) receptor in BHK570 cells (Homo sapiens, UniProt P30988); test: ASSAY (II)a functional assay, human calcitonin receptor (CRE luciferase); format: cell-based; conditions: read-out: hCTR funct. EC50
T1 construct: expressed in transfected cells
T1 sequence (P30988 25-474): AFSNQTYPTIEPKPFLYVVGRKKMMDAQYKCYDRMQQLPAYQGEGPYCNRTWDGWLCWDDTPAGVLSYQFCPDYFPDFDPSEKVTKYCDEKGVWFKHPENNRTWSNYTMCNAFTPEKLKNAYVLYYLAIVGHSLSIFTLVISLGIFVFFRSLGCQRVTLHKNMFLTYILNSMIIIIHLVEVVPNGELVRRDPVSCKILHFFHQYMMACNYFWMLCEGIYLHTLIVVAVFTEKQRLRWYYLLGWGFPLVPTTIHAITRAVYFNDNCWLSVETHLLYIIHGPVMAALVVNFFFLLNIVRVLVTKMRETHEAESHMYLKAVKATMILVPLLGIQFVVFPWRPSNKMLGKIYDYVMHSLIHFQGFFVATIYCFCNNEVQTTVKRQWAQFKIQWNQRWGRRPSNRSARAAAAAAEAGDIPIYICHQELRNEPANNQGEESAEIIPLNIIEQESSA
Summary of the method: (§1)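 BHK cells stably carrying a CRE-luciferase reporter plus calcitonin receptor, or calcitonin receptor with RAMP-3 for the amylin 3(a) receptor, were seeded and kept overnight at 37° C. Compounds were added in assay medium with 10% FBS and 10 mM Hepes, pH 7.4, for 3 hours at 37° C, then luminescence was counted.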

[3] = target: T2, human amylin 3(a) receptor (human calcitonin receptor + RAMP-3) in BHK570 cells (Homo sapiens, UniProt O60896+P30988); test: ASSAY (II)a functional assay, human amylin receptor (CRE luciferase); format: cell-based; conditions: for EC50: human amylin receptor functional potency, assay (II), read-out: hAmylin-R funct. EC50
T2 construct: expressed in transfected cells
T2 sequence (O60896 24-148, one chain of several): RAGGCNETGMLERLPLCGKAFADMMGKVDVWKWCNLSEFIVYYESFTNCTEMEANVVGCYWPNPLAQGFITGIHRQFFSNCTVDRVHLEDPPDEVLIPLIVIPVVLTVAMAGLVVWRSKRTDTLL
Summary of the method: as §1

[4] = target: T3, human calcitonin receptor (Homo sapiens, UniProt P30988); test: ASSAY (VII) binding to the human calcitonin receptor (SPA, 125I-Calcitonin); conditions: read-out: hCTR bind IC50;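 also: cell membranes (35 ng/µL) combined with SPA beads in 40 µL of pH 7.4 Hepes buffer, 384-well format, signal counted on a TopCounter instrument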
T3 construct: expressed in transfected cells
T3 sequence (P30988 25-474): T1 sequence (P30988 25-474)
Description: Membranes were prepared in the following way; the cells were rinsed with PBS and incubated with Versene for approximately 5 min before harvesting. The cells were flushed with PBS and the cell-suspension was centrifuged for 5 min at 1000 rpm. […] The resulting pellet was resuspended in buffer 2 and protein concentration was measured (BCA protein Assay, Pierce). The homogenate was kept cold during the whole procedure. The membranes were kept at −80° C. until use. Assay was performed in a 384 well Optiplate (PerkinElmer) in a total volume of 40 ul. Membranes were mixed with SPA beads. Final concentration of membranes 35 ng/μL final and Final concentration of SPA beads was 0.05 mg/well. Test-compounds were dissolved in DMSO and further diluted in assay buffer (50 mM Hepes, pH 7.4, 1 mM CaCl2, 5 mM MgCl2, 0.1% OA and 0.02% Tween20). […] Samples were analyzed on TopCounter™ (Packard).

[5] = hCTR funct. EC50 over hAmylin-R funct. EC50
[6] = human functional selectivity: hCTR funct. EC50 / hAmylin-R funct. EC50
[7] = hCTR funct. EC50 divided by hAmylin-R funct. EC50

## CC(C)C[C@H](NC(=O)[C@H](CCCNC(=N)N)NC(=O)[C@H](CCC(N)=O)NC(=O)[C@@H](NC(=O)[C@H](C)NC(=O)[C@@H]1CSSC[C@H](NC(=O)[C@@H](N)CCCCNC(=O)CC[C@H](NC(=O)CC[C@H](NC(=O)CCCCCCCCCCCCCCCCCCC(=O)O)C(=O)O)C(=O)O)C(=O)N[C@@H](CC(N)=O)C(=O)N[C@@H]([C@@H](C)O)C(=O)N[C@@H](C)C(=O)N[C@@H]([C@@H](C)O)C(=O)N1)[C@@H](C)O)C(=O)N[C@@H](C)C(=O)N[C@@H](CC(=O)O)C(=O)N[C@@H](Cc1ccccc1)C(=O)N[C@@H](CC(C)C)C(=O)N[C@@H](CCCNC(=N)N)C(=O)N[C@@H](Cc1c[nH]cn1)C(=O)N[C@@H](CO)C(=O)N[C@@H](CO)C(=O)N1CCC[C@H]1C(=O)N[C@@H](CC(N)=O)C(=O)N[C@@H](Cc1ccccc1)C(=O)NCC(=O)N[C@@H](C)C(=O)N1CCC[C@H]1C(=O)N[C@@H](CC(C)C)C(=O)N[C@@H](CO)C(=O)N[C@@H](CO)C(=O)N[C@H](C(=O)N[C@@H](CC(N)=O)C(=O)N[C@H](C(=O)NCC(=O)N[C@@H](CO)C(=O)N[C@@H](CC(=O)O)C(=O)N[C@H](C(=O)N[C@@H](Cc1ccc(O)cc1)C(N)=O)[C@@H](C)O)C(C)C)[C@@H](C)O [Example 1] (H-K([γGlu-γGlu-C20 diacid])CNTATCATQRLADFLRHSSPNFGAPLSSTNVGSDTY-NH2; disulfide 2-7)
[1]
  ThT pH 4.0 lag time (h): 0 h
[2]
  EC50: 2.7 nM
[3]; [5]
  Ratio hCT/hAmylin funct.: 12.0
[3]
  EC50: 0.224 nM
[3]; [6]
  Ratio hCT/hAmylin funct.: 12.0
[4]
  IC50: 32.5 nM

## CC[C@H](C)[C@H](NC(=O)[C@H](C)NC(=O)CNC(=O)[C@H](Cc1ccccc1)NC(=O)[C@H](CC(N)=O)NC(=O)[C@@H]1CCCN1C(=O)[C@H](CO)NC(=O)[C@H](CO)NC(=O)[C@H](Cc1c[nH]cn1)NC(=O)[C@H](CCCNC(=N)N)NC(=O)[C@H](CC(C)C)NC(=O)[C@H](Cc1ccccc1)NC(=O)[C@H](CC(N)=O)NC(=O)[C@H](C)NC(=O)[C@H](CC(C)C)NC(=O)[C@H](CCCNC(=N)N)NC(=O)[C@H](CCC(N)=O)NC(=O)[C@@H](NC(=O)[C@H](C)NC(=O)[C@@H]1CSSC[C@H](NC(=O)[C@@H](N)CCCCNC(=O)COCCOCCNC(=O)CC[C@H](NC(=O)CCCCCCCCCCCCCCCCCCC(=O)O)C(=O)O)C(=O)N[C@@H](CC(N)=O)C(=O)N[C@@H]([C@@H](C)O)C(=O)N[C@@H](C)C(=O)N[C@@H]([C@@H](C)O)C(=O)N1)[C@@H](C)O)C(=O)N1CCC[C@H]1C(=O)N[C@@H](CO)C(=O)N[C@@H](CO)C(=O)N[C@H](C(=O)N[C@@H](CC(N)=O)C(=O)N[C@H](C(=O)NCC(=O)N[C@@H](CO)C(=O)N[C@@H](CC(N)=O)C(=O)N[C@H](C(=O)N[C@@H](Cc1ccc(O)cc1)C(N)=O)[C@@H](C)O)C(C)C)[C@@H](C)O [Example 41]
[1]
  ThT pH 4.0 lag time (h): 7 h
[2]
  EC50: 4.35 nM
[3]; [7]
  Ratio hCT/hAmylin funct.: 16.7
[3]; [5]
  Ratio hCT/hAmylin funct.: 16.7
[3]
  EC50: 0.26 nM
[3]; [6]
  Ratio hCT/hAmylin funct.: 16.7
[4]
  IC50: 21.3 nM

## CC[C@H](C)[C@H](NC(=O)[C@H](C)NC(=O)CNC(=O)[C@H](Cc1ccccc1)NC(=O)[C@H](CC(N)=O)NC(=O)[C@@H]1CCCN1C(=O)[C@H](CO)NC(=O)[C@H](CO)NC(=O)[C@H](Cc1c[nH]cn1)NC(=O)[C@H](CCCNC(=N)N)NC(=O)[C@H](CC(C)C)NC(=O)[C@H](Cc1ccccc1)NC(=O)[C@H](CC(N)=O)NC(=O)[C@H](C)NC(=O)[C@H](CC(C)C)NC(=O)[C@H](CCCNC(=N)N)NC(=O)[C@H](CCC(N)=O)NC(=O)[C@@H](NC(=O)[C@H](C)NC(=O)[C@@H]1CSSC[C@H](NC(=O)[C@@H](N)CCCCNC(=O)COCCOCCNC(=O)CCCCCCCCCCCCCCCCCCC(=O)O)C(=O)N[C@@H](CC(N)=O)C(=O)N[C@@H]([C@@H](C)O)C(=O)N[C@@H](C)C(=O)N[C@@H]([C@@H](C)O)C(=O)N1)[C@@H](C)O)C(=O)N1CCC[C@H]1C(=O)N[C@@H](CO)C(=O)N[C@@H](CO)C(=O)N[C@H](C(=O)N[C@@H](CC(N)=O)C(=O)N[C@H](C(=O)NCC(=O)N[C@@H](CO)C(=O)N[C@@H](CC(N)=O)C(=O)N[C@H](C(=O)N[C@@H](Cc1ccc(O)cc1)C(N)=O)[C@@H](C)O)C(C)C)[C@@H](C)O [Example 43]
[1]
  ThT pH 4.0 lag time (h): 4 h
[2]
  EC50: 0.92 nM
[3]; [7]
  Ratio hCT/hAmylin funct.: 6.5
[3]
  EC50: 0.141 nM
[3]; [6]
  Ratio hCT/hAmylin funct.: 6.5
[4]
  IC50: 2.64 nM

## CC[C@H](C)[C@H](NC(=O)[C@H](C)NC(=O)CNC(=O)[C@H](Cc1ccccc1)NC(=O)[C@H](CC(N)=O)NC(=O)[C@@H]1CCCN1C(=O)[C@H](CO)NC(=O)[C@H](CO)NC(=O)[C@H](Cc1c[nH]cn1)NC(=O)[C@H](CCCNC(=N)N)NC(=O)[C@H](CC(C)C)NC(=O)[C@H](Cc1ccccc1)NC(=O)[C@H](Cc1c[nH]cn1)NC(=O)[C@H](C)NC(=O)[C@H](CC(C)C)NC(=O)[C@H](CCCNC(=N)N)NC(=O)[C@H](CCC(N)=O)NC(=O)[C@@H](NC(=O)[C@H](C)NC(=O)[C@@H]1CSSC[C@H](NC(=O)[C@@H](N)CCCCNC(=O)COCCOCCNC(=O)CCCCCCCCCCCCCCCCCCC(=O)O)C(=O)N[C@@H](CC(N)=O)C(=O)N[C@@H]([C@@H](C)O)C(=O)N[C@@H](C)C(=O)N[C@@H]([C@@H](C)O)C(=O)N1)[C@@H](C)O)C(=O)N1CCC[C@H]1C(=O)N[C@@H](CO)C(=O)N[C@@H](CO)C(=O)N[C@H](C(=O)N[C@@H](CC(N)=O)C(=O)N[C@H](C(=O)NCC(=O)N[C@@H](CO)C(=O)N[C@@H](CC(N)=O)C(=O)N[C@H](C(=O)N[C@@H](Cc1ccc(O)cc1)C(N)=O)[C@@H](C)O)C(C)C)[C@@H](C)O [Example 90]
[1]
  ThT pH 4.0 lag time (h): 10 h
[2]
  EC50: 0.236 nM
[3]; [7]
  Ratio hCT/hAmylin funct.: 7.2
[3]; [6]
  Ratio hCT/hAmylin funct.: 7.2

## CC[C@H](C)[C@H](NC(=O)[C@H](C)NC(=O)CNC(=O)[C@H](Cc1ccccc1)NC(=O)[C@H](CC(N)=O)NC(=O)[C@@H]1CCCN1C(=O)[C@H](CO)NC(=O)[C@H](CO)NC(=O)[C@H](Cc1c[nH]cn1)NC(=O)[C@H](CCCNC(=N)N)NC(=O)[C@H](CC(C)C)NC(=O)[C@H](Cc1ccccc1)NC(=O)[C@H](CCC(=O)O)NC(=O)[C@H](C)NC(=O)[C@H](CC(C)C)NC(=O)[C@H](CCCNC(=N)N)NC(=O)[C@H](CCC(N)=O)NC(=O)[C@@H](NC(=O)[C@H](C)NC(=O)[C@@H]1CSSC[C@H](NC(=O)[C@@H](N)CCCCNC(=O)CC[C@H](NC(=O)CC[C@H](NC(=O)CCCCCCCCCCCCCCCCCCC(=O)O)C(=O)O)C(=O)O)C(=O)N[C@@H](CC(N)=O)C(=O)N[C@@H]([C@@H](C)O)C(=O)N[C@@H](C)C(=O)N[C@@H]([C@@H](C)O)C(=O)N1)[C@@H](C)O)C(=O)N[C@@H](CC(C)C)C(=O)N[C@@H](CO)C(=O)N[C@@H](CO)C(=O)N[C@H](C(=O)N1CCC[C@H]1C(=O)N[C@H](C(=O)NCC(=O)N1CCC[C@H]1C(=O)N[C@@H](CCC(=O)O)C(=O)N[C@H](C(=O)N[C@@H](Cc1ccc(O)cc1)C(N)=O)[C@@H](C)O)C(C)C)[C@@H](C)O [Example 121] (H-K([γGlu-γGlu-C20 diacid])CNTATCATQRLAEFLRHSSPNFGAILSSTPVGPETY-NH2; disulfide 2-7; N-terminus assumed)
[1]
  ThT pH 4.0 lag time (h): 3 h
[3]; [5]
  Ratio hCT/hAmylin funct.: 5.8
[3]; [6]
  Ratio hCT/hAmylin funct.: 5.8

## CC[C@H](C)[C@H](NC(=O)[C@H](C)NC(=O)CNC(=O)[C@@H]1CCCN1C(=O)[C@H](CC(N)=O)NC(=O)[C@H](CC(N)=O)NC(=O)[C@H](CO)NC(=O)[C@H](CO)NC(=O)[C@H](Cc1c[nH]cn1)NC(=O)[C@H](CCCNC(=N)N)NC(=O)[C@H](CC(C)C)NC(=O)[C@H](Cc1ccccc1)NC(=O)[C@H](CCC(=O)O)NC(=O)[C@H](C)NC(=O)[C@H](CC(C)C)NC(=O)[C@H](CCCNC(=N)N)NC(=O)[C@H](CCC(N)=O)NC(=O)[C@@H](NC(=O)[C@H](C)NC(=O)[C@@H]1CSSC[C@H](NC(=O)[C@@H](N)CCCCNC(=O)CC[C@H](NC(=O)CC[C@H](NC(=O)CCCCCCCCCCCCCCCCCCC(=O)O)C(=O)O)C(=O)O)C(=O)N[C@@H](CC(N)=O)C(=O)N[C@@H]([C@@H](C)O)C(=O)N[C@@H](C)C(=O)N[C@@H]([C@@H](C)O)C(=O)N1)[C@@H](C)O)C(=O)N[C@@H](CC(C)C)C(=O)N[C@@H](CO)C(=O)N[C@@H](CO)C(=O)N[C@H](C(=O)N[C@@H](CC(N)=O)C(=O)N[C@H](C(=O)NCC(=O)N1CCC[C@H]1C(=O)N[C@@H](CCC(=O)O)C(=O)N[C@H](C(=O)N[C@@H](Cc1ccc(O)cc1)C(N)=O)[C@@H](C)O)C(C)C)[C@@H](C)O [Example 126] (H-K([γGlu-γGlu-C20 diacid])CNTATCATQRLAEFLRHSSNNPGAILSSTNVGPETY-NH2; disulfide 2-7 (inferred); N-terminus assumed)
[1]
  ThT pH 4.0 lag time (h): 0 h
[3]; [5]
  Ratio hCT/hAmylin funct.: 17.3
[3]; [6]
  Ratio hCT/hAmylin funct.: 17.3
